The source of these data is US9512105B2, “1-substituted 4-arylpiperazine as kappa opioid receptor antagonists” (RESEARCH TRIANGLE INSTITUTE, priority 2011, dated 2016).

The structures appear in SMILES notation. Read-outs that look alike come from different tables or passages of the source.

Data set [1] addresses T1, cloned human μ-opioid receptor (Homo sapiens, UniProt P35372).
T1 construct: expressed in transfected cells
Put plainly: Inhibition of DAMGO-stimulated [35S]GTPγS binding. The format is biochemical.

Data set [2] deals with T2, cloned human κ-opioid receptor (Homo sapiens, UniProt P41145).
T2 construct: expressed in transfected cells
Put plainly: Inhibition of U69,593-stimulated [35S]GTPγS binding. In kind it is biochemical. As to conditions: for efficacy for the κ opioid receptor in words: [35S]GTPγS in vitro functional assay; for δ/κ / μ/κ: ratio of Ke values; for δ/κ: selectivity for κ relative to δ; for μ/κ: selectivity for κ relative to μ.

Data set [3] concerns the target T3, cloned human δ-opioid receptor (Homo sapiens, UniProt P41143).
T3 construct: expressed in transfected cells
Description: Inhibition of DPDPE-stimulated [35S]GTPγS binding. In kind it is biochemical.

[4] abbreviates: antagonism of DAMGO-stimulated [35S]GTPγS binding, cloned human μ receptor, read-out: μ, DAMGO Ke.
The mark [5] stands for this setting: antagonism of U69,593-stimulated [35S]GTPγS binding, cloned human κ receptor, read-out: κ, U69,593 Ke.
The mark [6] stands for this setting: antagonism of DPDPE-stimulated [35S]GTPγS binding, cloned human δ receptor, read-out: δ, DPDPE Ke.

T3 sequence (P41143 whole entry): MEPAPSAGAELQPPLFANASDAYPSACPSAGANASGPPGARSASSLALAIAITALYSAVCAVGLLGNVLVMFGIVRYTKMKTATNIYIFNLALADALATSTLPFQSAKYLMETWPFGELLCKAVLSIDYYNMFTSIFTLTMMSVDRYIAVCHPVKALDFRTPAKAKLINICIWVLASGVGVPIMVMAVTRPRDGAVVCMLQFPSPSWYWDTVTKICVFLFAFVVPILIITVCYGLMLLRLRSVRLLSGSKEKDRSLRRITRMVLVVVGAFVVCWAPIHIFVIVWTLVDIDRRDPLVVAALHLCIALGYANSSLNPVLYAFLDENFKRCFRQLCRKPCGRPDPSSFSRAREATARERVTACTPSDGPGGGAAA
T2 sequence (P41145 whole entry): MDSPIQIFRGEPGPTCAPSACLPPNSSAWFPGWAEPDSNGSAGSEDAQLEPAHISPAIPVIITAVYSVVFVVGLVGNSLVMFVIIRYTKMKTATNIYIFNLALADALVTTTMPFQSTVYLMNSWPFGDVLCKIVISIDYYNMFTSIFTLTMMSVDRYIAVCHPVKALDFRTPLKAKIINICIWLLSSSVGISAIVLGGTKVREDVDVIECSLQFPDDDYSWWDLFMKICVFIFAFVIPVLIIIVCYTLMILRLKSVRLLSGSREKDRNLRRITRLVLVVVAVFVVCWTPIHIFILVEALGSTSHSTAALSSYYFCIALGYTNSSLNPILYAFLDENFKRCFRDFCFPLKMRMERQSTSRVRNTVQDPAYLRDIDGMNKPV
T1 sequence (P35372 whole entry): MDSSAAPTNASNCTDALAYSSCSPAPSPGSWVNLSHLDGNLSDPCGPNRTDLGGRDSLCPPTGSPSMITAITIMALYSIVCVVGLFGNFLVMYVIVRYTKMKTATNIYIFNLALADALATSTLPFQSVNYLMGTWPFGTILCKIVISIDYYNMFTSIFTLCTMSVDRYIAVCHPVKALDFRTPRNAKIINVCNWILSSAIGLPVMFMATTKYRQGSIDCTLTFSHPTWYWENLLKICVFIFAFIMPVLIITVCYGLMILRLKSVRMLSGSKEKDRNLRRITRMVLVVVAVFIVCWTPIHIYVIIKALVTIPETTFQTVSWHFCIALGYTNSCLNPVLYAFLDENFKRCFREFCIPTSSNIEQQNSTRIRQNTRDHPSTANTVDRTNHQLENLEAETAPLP

`Cc1cccc(Oc2ccc(C(=O)N[C@H](CN3CCN(c4cccc(O)c4)[C@@H](C)C3)C(C)C)cc2Cl)c1.Cl.Cl` [Compound 6l, 3-Chloro-N-[(2S)-1-[(3S)-4-(3-hydroxyphenyl)-3-methylpiperazin-1-yl]-3-methylbutan-2-yl]-4-(3-methylphenoxy)benzamide Dihydrochloride] had a melting point of 154 to 158 °C. Further, the Kb in data set [1] (setting [4]) was determined as 43 ± 10 nM. Also, in data set [2], the “efficacy for the κ opioid receptor in words” value is on record as “high efficacy (low Ke values)”. In addition, the Kb in data set [2] (setting [5]) is 0.29 ± 0.13 nM. The Kb in data set [3] (setting [6]) amounted to 1100 ± 262 nM.
As to `Cc1ccc(O)c(Oc2ccc(C(=O)N[C@H](CN3CCN(c4cccc(O)c4)[C@@H](C)C3)C(C)C)cc2)c1.Cl.Cl` [Compound 6m, 4-(2-Hydroxy-5-methylphenoxy)-N-[(2S)-1-[(3S)-4-(3-hydroxyphenyl)-3-methylpiperazin-1-yl]-3-methylbutan-2-yl]benzamide Dihydrochloride], the melting point lay within 179 to 183 °C.
`CC(C)[C@@H](CN1CCN(c2cccc(O)c2)[C@@H](C)C1)NC(=O)c1ccc(Oc2ccccc2)nc1.Cl.Cl.Cl` [Compound 7b, N-[(2S)-1-[(3S)-4-(3-Hydroxyphenyl)-3-methylpiperazin-1-yl]-3-methylbutan-2-yl]-6-phenoxypyridine-3-carboxamide Trihydrochloride] displayed a melting point of 168 to 170 °C. Further, in data set [1], the Kb worked out at 60 ± 11 nM. Besides, in data set [2], the Kb was 1.6 ± 0.3 nM, the δ/κ is reported as 1119 and the μ/κ was found to be 38. This compound also yielded a Kb in data set [3] of 1790 ± 63 nM.
`CC(C)[C@@H](CN1CCN(c2cccc(O)c2)[C@@H](C)C1)NC(=O)c1ccc(Oc2ccccc2F)cc1.Cl.Cl` [Compound 19a, 4-(2-Fluorophenoxy)-N-[(1S)-1-{[(3S)-4-(3-hydroxyphenyl)-3-methylpiperazin-1-yl]methyl}-2-methylpropyl]benzamide Dihydrochloride] displayed a melting point of 156 to 159 °C. In addition, the Kb in data set [1] (setting [4]) stood at 21.1 ± 4 nM. Besides, in data set [2], the “efficacy for the κ opioid receptor in words” value is reported as “high efficacy (low Ke values)”, the δ/κ worked out at 126 and the μ/κ was 28. The Kb in data set [2] (setting [5]) came to 0.76 ± 0.21 nM. Besides, the Kb in data set [3] (setting [6]) is 96 ± 18 nM.
The compound `CC(C)[C@@H](CN1CCN(c2cccc(O)c2)[C@@H](C)C1)NC(=O)c1ccc(Oc2cccc(C(F)(F)F)c2)cc1` [Compound 19b, N-[(1S)-1-{[(3S)-4-(3-Hydroxyphenyl)-3-methylpiperazin-1-yl]methyl}-2-methylpropyl]-4-[3-(trifluoromethyl)phenoxy]benzamide] came in with a melting point of 110 to 115 °C. This compound also yielded a Kb in data set [1] of 21 ± 7.2 nM. Moreover, in data set [2], the Kb came to 1.2 ± 0.35 nM, the δ/κ worked out at 45 and the μ/κ is recorded as 18. The same compound gave a Kb in data set [3] of 54 ± 19 nM.
In turn, `CC(C)[C@@H](CN1CCN(c2cccc(O)c2)[C@@H](C)C1)NC(=O)c1ccc(Oc2cccc(Cl)c2)cc1.Cl.Cl` [Compound 19c, 4-(3-Chlorophenoxy)-N-[(1S)-1-{[(3S)-4-(3-hydroxyphenyl)-3-methylpiperazin-1-yl]methyl}-2-methylpropyl]benzamide Dihydrochloride] returned a melting point of 103 to 105 °C. The Kb in data set [1] (setting [4]) is 18 ± 7.2 nM. Moreover, the Kb in data set [2] (setting [5]) came out at 0.42 ± 0.05 nM. Further, in data set [2], the δ/κ was 20 and the μ/κ came out at 43. In data set [3] (setting [6]), the Kb was determined as 8.3 ± 0.9 nM.
For the compound `CC(C)[C@@H](CN1CCN(c2cccc(O)c2)[C@@H](C)C1)NC(=O)c1ccc(Oc2cccc(Br)c2)cc1.Cl.Cl` [Compound 19d, 4-(3-Bromophenoxy)-N-[(1S)-1-{[(3S)-4-(3-hydroxyphenyl)-3-methylpiperazin-1-yl]methyl}-2-methylpropyl]benzamide Dihydrochloride], the melting point was in the range of 106 to 109 °C. The Kb in data set [1] (setting [4]) is 17 ± 6.3 nM. Further, in data set [2] (setting [5]), the Kb came to 0.48 ± 0.02 nM. Moreover, in data set [2], the δ/κ worked out at 88 and the μ/κ is recorded as 35. Besides, the Kb in data set [3] (setting [6]) turned out to be 42 ± 19 nM.
`Cc1cccc(Oc2ccc(C(=O)N[C@H](CN3CCN(c4cccc(O)c4)[C@@H](C)C3)C(C)C)cc2)c1O.Cl.Cl` [Compound 19e, 4-(2-Hydroxy-3-methylphenoxy)-N-[(2S)-1-[(3S)-4-(3-hydroxyphenyl)-3-methylpiperazin-1-yl]-3-methylbutan-2-yl]benzamide Dihydrochloride] returned a melting point of 173 °C. Besides, in data set [1] (setting [4]), the Kb amounted to 23.8 ± 8.9 nM. Further, the Kb in data set [2] (setting [5]) worked out at 0.34 ± 0.16 nM. The Kb in data set [3] (setting [6]) came out at 92.7 ± 14 nM.
For `Cc1cc(C)cc(Oc2ccc(C(=O)N[C@H](CN3CCN(c4cccc(O)c4)[C@@H](C)C3)C(C)C)cc2)c1.Cl.Cl` [Compound 19f, 4-(3,5-Dimethylphenoxy)-N-[(1S)-1-{[(3S)-4-(3-hydroxyphenyl)-3-methylpiperazin-1-yl]methyl}-2-methylpropyl]benzamide Dihydrochloride], the melting point was 117 to 120 °C. The Kb in data set [1] (setting [4]) worked out at 25 ± 7 nM. Also, the Kb in data set [2] (setting [5]) worked out at 0.98 ± 0.06 nM. Further, in data set [2], the δ/κ is listed as 80 and the μ/κ worked out at 26. Besides, the Kb in data set [3] (setting [6]) was 78 ± 20 nM.
Consider `Cc1cccc(Oc2ccc(C(=O)N[C@H](CN3CCN(c4cccc(O)c4)[C@@H](C)C3)C(C)C)cc2C)c1.Cl.Cl` [Compound 19g, N-[(2S)-1-[(3S)-4-(3-Hydroxyphenyl)-3-methylpiperazin-1-yl]-3-methylbutan-2-yl]-3-methyl-4-(3-methylphenoxy)benzamide Dihydrochloride], for which the melting point fell in the range of 124 to 130 °C. The Kb in data set [1] (setting [4]) was 14.4 ± 3.9 nM. Further, the Kb in data set [2] (setting [5]) is 0.16 ± 0.03 nM. Also, the δ/κ in data set [2] (Dihydrochloride) is 131. Also, in data set [3] (setting [6]), the Kb was determined as 21 ± 6 nM.
Compound `COc1cc(C(=O)N[C@H](CN2CCN(c3cccc(O)c3)[C@@H](C)C2)C(C)C)ccc1Oc1cccc(C)c1.Cl.Cl` [Compound 19h, N-[(2S)-1-[(3S)-4-(3-Hydroxyphenyl)-3-methylpiperazin-1-yl]-3-methylbutan-2-yl]-3-methoxy-4-(3-methylphenoxy)benzamide Dihydrochloride] showed a melting point of 128 to 131 °C. Moreover, in data set [1] (setting [4]), the Kb came to 35.1 ± 15 nM. The Kb in data set [2] (setting [5]) was 0.25 ± 0.07 nM. In addition, the Kb in data set [3] (setting [6]) turned out to be 93 ± 4 nM.
The compound `Cc1cccc(Oc2ccc(C(=O)N[C@H](CN3CCN(c4cccc(O)c4)[C@@H](C)C3)C(C)C)cc2O)c1.Cl.Cl` [Compound 19i, 3-Hydroxy-N-[(2S)-1-[(3S)-4-(3-hydroxyphenyl)-3-methylpiperazin-1-yl]-3-methylbutan-2-yl]-4-(3-methylphenoxy)benzamide Dihydrochloride] displayed a melting point of 195 to 200 °C. Besides, the Kb in data set [1] (setting [4]) is 13.7 ± 5.6 nM. For the same compound, in data set [2] (setting [5]), the Kb was determined as 0.57 ± 0.14 nM. Further, in data set [2], the δ/κ was 142 and the μ/κ stood at 24. Also, the Kb in data set [3] (setting [6]) came out at 81 ± 35 nM.
For the compound `Cc1cccc(Oc2ccc(C(=O)N[C@H](CN3CCN(c4cccc(O)c4)[C@@H](C)C3)C(C)C)c(C)c2)c1.Cl.Cl` [Compound 19j, N-[(1S)-1-{[(3S)-4-(3-Hydroxyphenyl)-3-methylpiperazin-1-yl]methyl}-2-methylpropyl]-2-methyl-4-(3-methylphenoxy)benzamide Dihydrochloride], the melting point lay in the range of 164 to 167 °C. Besides, in data set [1], the Kb worked out at 14 ± 3 nM. Moreover, in data set [2] (setting [5]), the Kb amounted to 0.65 ± 0.2 nM. For the same compound, in data set [2], the δ/κ was 28 and the μ/κ came to 22. In data set [3], this compound gave a Kb of 18 ± 3 nM.
With `COc1cc(Oc2cccc(C)c2)ccc1C(=O)N[C@H](CN1CCN(c2cccc(O)c2)[C@@H](C)C1)C(C)C.Cl.Cl` [Compound 19k, N-[(1S)-1-{[(3S)-4-(3-Hydroxyphenyl)-3-methylpiperazin-1-yl]methyl}-2-methylpropyl]-2-methoxy-4-(3-methylphenoxy)benzamide Dihydrochloride], the melting point lay within 99 to 102 °C. The Kb in data set [1] (setting [4]) was found to be 49 ± 14 nM. Further, in data set [2] (setting [5]), the Kb worked out at 1.3 ± 0.03 nM. Besides, in data set [2], the δ/κ came out at 48 and the μ/κ was determined as 38. Besides, the Kb in data set [3] (setting [6]) is 63 ± 20 nM.
For the compound `Cc1cccc(Oc2ccc(C(=O)N[C@H](CN3CCN(c4cccc(O)c4)[C@@H](C)C3)C(C)C)c(O)c2)c1.Cl.Cl` [Compound 19l, 2-Hydroxy-N-[(1S)-1-{[(3S)-4-(3-hydroxyphenyl)-3-methylpiperazin-1-yl]methyl}-2-methylpropyl]-4-(3-methylphenoxy)benzamide Dihydrochloride], the melting point lay within 119 to 123 °C. Besides, in data set [1], the Kb is 145 ± 48 nM. Also, in data set [2], the Kb amounted to 1.8 ± 0.3 nM, the δ/κ is on record as 129 and the μ/κ amounted to 81. The same compound returned a Kb in data set [3] of 233 ± 90 nM.
Take `CC(C)[C@@H](CN1CCN(c2cccc(O)c2)[C@@H](C)C1)NC(=O)c1ccc(Oc2ccccc2O)c(Cl)c1.Cl.Cl` [Compound 19n, 3-Chloro-4-(2-hydroxyphenoxy)-N-[(1)-1-{[(3S)-4-(3-hydroxyphenyl)-3-methylpiperazin-1-yl]methyl}-2-methylpropyl]benzamide Dihydrochloride]: the “μ, DAMGO Ke” value in data set [1] (antagonism of DAMGO-stimulated [35S]GTPγS binding, cloned human μ receptor) is listed as 36 ± 9.2 nM. For the same compound, the “κ, U69,593 Ke” value in data set [2] (antagonism of U69,593-stimulated [35S]GTPγS binding, cloned human κ receptor) came out at 5.0 ± 0.82 nM. Also, in data set [2], the δ/κ is on record as 42 and the μ/κ is 7. For the same compound, the “δ, DPDPE Ke” value in data set [3] (antagonism of DPDPE-stimulated [35S]GTPγS binding, cloned human δ receptor) is 210 ± 82 nM.
